ChEMBL document CHEMBL1152197, “Convergent synthesis and cruzain inhibitory activity of novel 2-(N'-benzylidenehydrazino)-4-trifluoromethyl-pyrimidines” (Bioorg Med Chem, 2008)

What was measured:
[1] = biological target: Cruzipain (Trypanosoma cruzi) (UniProt P25779); experiment: Inhibition of Trypanosoma cruzi C-terminal truncated cruzain expressed in DH5alpha Escherichia coli at 100 uM by well-microplate spectrophotometry
[2] = biological target: Cruzipain (Trypanosoma cruzi, UniProt P25779); experiment: Inhibition of Trypanosoma cruzi C-terminal truncated cruzain expressed in DH5alpha Escherichia coli by well-microplate spectrophotometry
Chain of Cruzipain (P25779 whole entry, the tested form may be a part): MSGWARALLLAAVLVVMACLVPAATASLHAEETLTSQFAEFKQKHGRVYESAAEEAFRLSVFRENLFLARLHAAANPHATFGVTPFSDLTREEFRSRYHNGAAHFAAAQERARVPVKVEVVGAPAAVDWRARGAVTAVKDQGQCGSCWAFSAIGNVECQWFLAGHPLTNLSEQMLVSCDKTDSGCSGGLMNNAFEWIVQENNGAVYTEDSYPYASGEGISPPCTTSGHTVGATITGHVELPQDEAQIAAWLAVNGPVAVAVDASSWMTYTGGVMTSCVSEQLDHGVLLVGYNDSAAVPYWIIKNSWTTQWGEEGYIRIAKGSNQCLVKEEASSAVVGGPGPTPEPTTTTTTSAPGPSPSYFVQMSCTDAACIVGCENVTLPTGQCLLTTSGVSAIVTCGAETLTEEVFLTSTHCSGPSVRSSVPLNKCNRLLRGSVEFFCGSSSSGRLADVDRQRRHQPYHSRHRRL

Chain of Cruzipain (Trypanosoma cruzi) (P25779 123-467 limits assumed): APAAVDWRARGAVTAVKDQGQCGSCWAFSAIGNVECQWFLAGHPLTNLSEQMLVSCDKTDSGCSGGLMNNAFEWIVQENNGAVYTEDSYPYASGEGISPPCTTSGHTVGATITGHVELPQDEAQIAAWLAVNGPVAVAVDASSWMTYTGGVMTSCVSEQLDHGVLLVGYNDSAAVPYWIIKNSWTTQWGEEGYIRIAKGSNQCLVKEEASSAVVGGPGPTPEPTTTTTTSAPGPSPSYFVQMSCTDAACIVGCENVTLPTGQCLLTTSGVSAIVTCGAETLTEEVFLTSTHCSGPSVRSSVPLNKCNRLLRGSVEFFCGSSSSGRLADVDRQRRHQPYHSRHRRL

inhibition [1] | IC50 [2] | Compound
20% | > 150 µM | COc1ccccc1/C=N/Nc1nc(C)cc(C(F)(F)F)n1
40% | > 100 µM | COc1ccc(/C=N/Nc2nccc(C(F)(F)F)n2)cc1
45% | > 100 µM | Cc1ccccc1/C=N/Nc1nccc(C(F)(F)F)n1
30% | > 150 µM | FC(F)(F)c1ccnc(N/N=C/c2ccccc2)n1
80% | 85 µM | FC(F)(F)c1ccnc(N/N=C/c2ccc(Cl)cc2)n1
45% | > 100 µM | Cc1cc(C(F)(F)F)nc(N/N=C/c2ccccc2C)n1
40% | > 100 µM | Cc1ccc(/C=N/Nc2nccc(C(F)(F)F)n2)cc1
60% | 100 µM | Cc1cc(C(F)(F)F)nc(N/N=C/c2ccc(Cl)cc2)n1
50% | 100 µM | O=[N+]([O-])c1ccc(/C=N/Nc2nccc(C(F)(F)F)n2)cc1
